Holding throughout (format): cell-based
Assay [1] relates to NCIH2452. The experiment in a line: Colony formation (CFU) assay, NCIH2452. The settings on record: Homo sapiens, NCI-H2452, 336 h; NCIH2452, pleura; CFU ~14 days; wells with DMSO or 300 nM Compound 1; read-out: Chemotherapy nM IC50s. As to the method:
(§1) In vitro experiments were conducted using the colony formation unit (CFU) assay on various cell lines. The CFU assay involved first establishing what cell plating density enabled the development of clearly interspersed colonies on a six-well plate when left to grow for around 14 days. […] At or around day 14 when clearly interspersed colonies were visible in the DMSO-treated wells, the cells were fixed and stained using 0.1% crystal violet in 10% ethanol for 20 minutes at room temperature. The plates were imaged then the amount of crystal violet stain in each well was quantified by extracting the crystal violet into 10% acetic acid and the absorbance measured at 565 nm.
(§2) For certain cell lines, multiple IC50 values were taken, and those are separated by commas. Synergy scores are in parentheticals.

Assay [2] deals with MERO14. Put plainly: Colony formation (CFU) assay, MERO14. The settings on record: CFU ~14 days, wells with DMSO or 300 nM Compound 1, read-out: Chemotherapy nM IC50s. As to the method:
as §1, §2

In assay [3] the test system is KALS1. Put plainly: Colony formation (CFU) assay, KALS1. The settings on record: Homo sapiens, KALS-1, 336 h; KALS1, nervous system; CFU ~14 days; wells with DMSO or 300 nM Compound 1; read-out: Chemotherapy nM IC50s. Here is the method: as §1, §2
Assay [4] relates to ACCMESO1. The experiment in a line: Colony formation (CFU) assay, ACCMESO1. The settings on record: ACC-MESO-1, 336 h; ACCMESO1, pleura; CFU ~14 days; wells with DMSO or 300 nM Compound 1; read-out: Chemotherapy nM IC50s. As to the method: as §1, §2
In assay [5] the test system is OVSAHO. Put plainly: Colony formation (CFU) assay, OVSAHO. The settings on record: Homo sapiens, 336 h, ovary, CFU ~14 days, wells with DMSO or 300 nM Compound 1, read-out: Chemotherapy nM IC50s. As to the method: as §1, §2
Assay [6] deals with COV362. The experiment in a line: Colony formation (CFU) assay, COV362. The settings on record: 336 h; COV362, ovary; CFU ~14 days; wells with DMSO or 300 nM Compound 1; read-out: Chemotherapy nM IC50s. Here is the method: as §1, §2
In assay [7] the test system is HCC1937. Put plainly: Colony formation (CFU) assay, HCC1937. The settings on record: HCC1937, breast, CFU ~14 days, wells with DMSO or 300 nM Compound 1, read-out: Chemotherapy nM IC50s. Here is the method: as §1, §2
Assay [8] has as its system UWB1289. Put plainly: Colony formation (CFU) assay, UWB1289. The settings on record: 336 h; UWB1289, ovary; CFU ~14 days; wells with DMSO or 300 nM Compound 1; read-out: Chemotherapy nM IC50s. Here is the method:
as §1, §2

Assay [9] concerns MSTO211H. The experiment in a line: Colony formation (CFU) assay, MSTO211H. The settings on record: pleura, CFU ~14 days, wells with DMSO or 300 nM Compound 1, read-out: Chemotherapy nM IC50s. Here is the method: as §1, §2
The subject of assay [10] is NCIH1650. Put plainly: Colony formation (CFU) assay, NCIH1650. The settings on record: NCIH1650, lung, CFU ~14 days, wells with DMSO or 300 nM Compound 1, read-out: Chemotherapy nM IC50s. Here is the method: as §1, §2
The subject of assay [11] is BECKER. The experiment in a line: Colony formation (CFU) assay, BECKER. The settings on record: CFU ~14 days, wells with DMSO or 300 nM Compound 1, read-out: Chemotherapy nM IC50s. As to the method:
as §1, §2

Assay [12] concerns U251MG. The experiment in a line: Colony formation (CFU) assay, U251MG. The settings on record: nervous system, CFU ~14 days, wells with DMSO or 300 nM Compound 1, read-out: Chemotherapy nM IC50s. Here is the method: as §1, §2
Assay [13] concerns NCIH1915. Put plainly: Colony formation (CFU) assay, NCIH1915. The settings on record: NCIH1915, lung, CFU ~14 days, wells with DMSO or 300 nM Compound 1, read-out: Chemotherapy nM IC50s. Here is the method: as §1, §2
The subject of assay [14] is 647V. Put plainly: Colony formation (CFU) assay, 647V. The settings on record: Homo sapiens, 336 h, bladder, CFU ~14 days, wells with DMSO or 300 nM Compound 1, read-out: Chemotherapy nM IC50s. Here is the method: as §1, §2
For assay [15], the system named is SUM149PT. Put plainly: Colony formation (CFU) assay, SUM149PT. The settings on record: breast. Here is the method: as §1, §2
Assay [16] concerns HCC1806. Put plainly: Colony formation (CFU) assay, HCC1806. The settings on record: HCC1806, breast, CFU ~14 days, wells with DMSO or 300 nM Compound 1, read-out: Chemotherapy nM IC50s (converted). Here is the method: as §1, §2
Assay [17] deals with CAPAN2. Put plainly: Colony formation (CFU) assay, CAPAN2. The settings on record: CAPAN2, pancreas, CFU ~14 days, wells with DMSO or 300 nM Compound 1, read-out: Chemotherapy nM IC50s. Here is the method:
as §1, §2

Assay [18] has as its system MDAMB231. The experiment in a line: Colony formation (CFU) assay, MDAMB231. The settings on record: MDAMB231, breast, CFU ~14 days, wells with DMSO or 300 nM Compound 1, read-out: Chemotherapy nM IC50s. As to the method: as §1, §2
Assay [19] has as its system A549. Put plainly: Colony formation (CFU) assay, A549. The settings on record: Homo sapiens, 336 h; A549, lung; CFU ~14 days; wells with DMSO or 300 nM Compound 1; read-out: Chemotherapy nM IC50s. Here is the method:
as §1, §2

The test system of assay [20] is HPAC. Put plainly: Colony formation (CFU) assay, HPAC. The settings on record: Homo sapiens, 336 h, pancreas, CFU ~14 days, wells with DMSO or 300 nM Compound 1, read-out: Chemotherapy nM IC50s. Here is the method: as §1, §2

Where two headings read alike, the source gives them in different places. Where only a bound is given, the exact number is not on record here.

With `COc1cccc2c1C(=O)c1c(O)c3c(c(O)c1C2=O)C[C@@](O)(C(=O)CO)C[C@@H]3O[C@H]1C[C@H](N)[C@H](O)[C@H](C)O1` [Dox., doxorubicin], the IC50 is 21 nM in assay [1]; 17 nM in [2] (336 h); 14 nM in assay [2]; 52 nM in assay [3]; 19 nM in assay [4]; 147 nM in assay [5]. For the same molecule, the IC50 in assay [6] turned out to be 108 nM; in [7], 4 nM; in [7] (Homo sapiens, HCC1937, 336 h), 8 nM; in assay [8], 76 nM; in [9] (Homo sapiens, MSTO-211H, 336 h) it was 16 nM; in [9], 8 nM.
As for `COc1cc([C@@H]2c3cc4c(cc3[C@@H](O[C@@H]3O[C@@H]5CO[C@@H](C)O[C@H]5[C@H](O)[C@H]3O)[C@H]3COC(=O)[C@H]23)OCO4)cc(OC)c1O` [Etop., etoposide], the IC50 in [10] amounted to 270 nM; in [11], 837 nM; in [12] it was 583 nM; in [13] it was 500 nM.
In the case of `Nc1ccn([C@@H]2O[C@H](CO)[C@@H](O)C2(F)F)c(=O)n1` [Gem., gemcitabine], the IC50 in assay [14] was 2 nM; in [15] (Homo sapiens, 336 h, CFU ~14 days, wells with DMSO or 300 nM Compound 1, read-out: Chemotherapy nM IC50s), 1 nM; in [16] (Homo sapiens, 336 h), less than 1 nM. In addition, the synergy score result in assay [15] (chemotherapy agent in combination with 300 nM Compound 1) was “(−1)”.
Take `CC(=O)O[C@H]1C(=O)[C@@]2(C)[C@H]([C@H](OC(=O)c3ccccc3)[C@]3(O)C[C@H](OC(=O)[C@H](O)[C@@H](NC(=O)c4ccccc4)c4ccccc4)C(C)=C1C3(C)C)[C@]1(OC(C)=O)CO[C@@H]1C[C@@H]2O` [Pacli., paclitaxel]: the IC50 is less than 1 nM in assay [17]; 2 nM in assay [17] (Homo sapiens, Capan-2, 336 h); 1 nM in assay [10] (Homo sapiens, NCI-H1650, 336 h); less than 1 nM in assay [10]; 1 nM in assay [18] (Homo sapiens, MDA-MB-231, 336 h); less than 1 nM in assay [18]. Further, the IC50 in assay [19] is 2 nM; in assay [13] (NCI-H1915, 336 h), less than 1 nM; in [16] it was less than 1 nM; in assay [16] (Homo sapiens, HCC1806, 336 h), 1 nM; in assay [5] it was 78 nM; in [6] it was 13 nM. For the same molecule, the IC50 in assay [20] turned out to be 3 nM; in [8], 43 nM.

The values above are taken from patent US20250213574A1, “THERAPEUTIC COMBINATIONS COMPRISING UBIQUITIN- SPECIFIC-PROCESSING PROTEASE 1 (USP1) INHIBITORS AND CHEMOTHERAPY AGENTS” (KSQ Therapeutics, Inc., priority 2022, published 2025).
